Measurements: the NIST ThermoML archive (doi:10.1021/acs.jced.7b00750)
± gives the expanded uncertainty stated by the source.

Test: xn = mol fraction of the nth substance listed
Conditions: 100 kPa, Liquid, Vibrating tube method

CNC(N)=O [methylurea] + O
Conditions	mass density [kg/m3]
274.15 K, x1 = 0.00244	1001.77 ± 0.13
274.15 K, x1 = 0.00291	1002.12 ± 0.13
274.15 K, x1 = 0.00483	1003.58 ± 0.13
274.15 K, x1 = 0.00553	1004.11 ± 0.13
274.15 K, x1 = 0.00799	1005.96 ± 0.13
274.15 K, x1 = 0.00834	1006.21 ± 0.13
274.15 K, x1 = 0.01081	1008.05 ± 0.13
274.15 K, x1 = 0.01421	1010.56 ± 0.13
275.15 K, x1 = 0.00244	1001.8 ± 0.13
275.15 K, x1 = 0.00291	1002.15 ± 0.13
275.15 K, x1 = 0.00483	1003.6 ± 0.13
275.15 K, x1 = 0.00553	1004.13 ± 0.13
275.15 K, x1 = 0.00799	1005.98 ± 0.13
275.15 K, x1 = 0.00834	1006.23 ± 0.13
275.15 K, x1 = 0.01081	1008.07 ± 0.13
275.15 K, x1 = 0.01421	1010.58 ± 0.13
276.15 K, x1 = 0.00244	1001.82 ± 0.13
276.15 K, x1 = 0.00291	1002.17 ± 0.13
276.15 K, x1 = 0.00483	1003.62 ± 0.13
276.15 K, x1 = 0.00553	1004.14 ± 0.15
276.15 K, x1 = 0.00799	1005.98 ± 0.13
276.15 K, x1 = 0.00834	1006.24 ± 0.15
276.15 K, x1 = 0.01081	1008.06 ± 0.13
276.15 K, x1 = 0.01421	1010.58 ± 0.13
277.15 K, x1 = 0.00244	1001.82 ± 0.13
277.15 K, x1 = 0.00291	1002.17 ± 0.13
277.15 K, x1 = 0.00483	1003.61 ± 0.13
277.15 K, x1 = 0.00553	1004.13 ± 0.13
277.15 K, x1 = 0.00799	1005.97 ± 0.13
277.15 K, x1 = 0.00834	1006.23 ± 0.13
277.15 K, x1 = 0.01081	1008.05 ± 0.13
277.15 K, x1 = 0.01421	1010.54 ± 0.13
278.15 K, x1 = 0.00244	1001.8 ± 0.13
278.15 K, x1 = 0.00291	1002.15 ± 0.13
278.15 K, x1 = 0.00483	1003.58 ± 0.13
278.15 K, x1 = 0.00553	1004.1 ± 0.13
278.15 K, x1 = 0.00799	1005.92 ± 0.13
278.15 K, x1 = 0.00834	1006.18 ± 0.13
278.15 K, x1 = 0.01081	1007.99 ± 0.13
278.15 K, x1 = 0.01421	1010.45 ± 0.13
278.15 K, x1 = 0.01662	1012.18 ± 0.13
278.15 K, x1 = 0.019	1013.89 ± 0.13
278.15 K, x1 = 0.02321	1016.84 ± 0.13
278.15 K, x1 = 0.03185	1022.7 ± 0.13
278.15 K, x1 = 0.04218	1029.47 ± 0.13
278.15 K, x1 = 0.05184	1035.47 ± 0.13
278.15 K, x1 = 0.06068	1040.78 ± 0.14
278.15 K, x1 = 0.07071	1046.57 ± 0.14
279.15 K, x1 = 0.00244	1001.76 ± 0.13
279.15 K, x1 = 0.00291	1002.11 ± 0.13
279.15 K, x1 = 0.00483	1003.53 ± 0.13
279.15 K, x1 = 0.00553	1004.05 ± 0.13
279.15 K, x1 = 0.00799	1005.86 ± 0.13
279.15 K, x1 = 0.00834	1006.11 ± 0.13
279.15 K, x1 = 0.01081	1007.92 ± 0.13
279.15 K, x1 = 0.01421	1010.37 ± 0.13
280.15 K, x1 = 0.00244	1001.71 ± 0.13
280.15 K, x1 = 0.00291	1002.05 ± 0.13
280.15 K, x1 = 0.00483	1003.47 ± 0.13
280.15 K, x1 = 0.00553	1003.98 ± 0.13
280.15 K, x1 = 0.00799	1005.78 ± 0.13
280.15 K, x1 = 0.00834	1006.03 ± 0.13
280.15 K, x1 = 0.01081	1007.83 ± 0.13
280.15 K, x1 = 0.01421	1010.26 ± 0.13
281.15 K, x1 = 0.00244	1001.65 ± 0.13
281.15 K, x1 = 0.00291	1001.99 ± 0.13
281.15 K, x1 = 0.00483	1003.39 ± 0.13
281.15 K, x1 = 0.00553	1003.9 ± 0.13
281.15 K, x1 = 0.00799	1005.7 ± 0.13
281.15 K, x1 = 0.00834	1005.95 ± 0.13
281.15 K, x1 = 0.01081	1007.72 ± 0.13
281.15 K, x1 = 0.01421	1010.15 ± 0.13
282.15 K, x1 = 0.00244	1001.57 ± 0.13
282.15 K, x1 = 0.00291	1001.91 ± 0.13
282.15 K, x1 = 0.00483	1003.31 ± 0.13
282.15 K, x1 = 0.00553	1003.81 ± 0.13
282.15 K, x1 = 0.00799	1005.59 ± 0.13
282.15 K, x1 = 0.00834	1005.84 ± 0.13
282.15 K, x1 = 0.01081	1007.61 ± 0.13
282.15 K, x1 = 0.01421	1010.02 ± 0.13
283.15 K, x1 = 0.00244	1001.47 ± 0.13
283.15 K, x1 = 0.00291	1001.81 ± 0.13
283.15 K, x1 = 0.00483	1003.2 ± 0.13
283.15 K, x1 = 0.00553	1003.71 ± 0.13
283.15 K, x1 = 0.00799	1005.48 ± 0.13
283.15 K, x1 = 0.00834	1005.72 ± 0.13
283.15 K, x1 = 0.01081	1007.48 ± 0.13
283.15 K, x1 = 0.01421	1009.88 ± 0.13
288.15 K, x1 = 0.00244	1000.82 ± 0.15
288.15 K, x1 = 0.00291	1001.15 ± 0.11
288.15 K, x1 = 0.00483	1002.51 ± 0.13
288.15 K, x1 = 0.00553	1003 ± 0.13
288.15 K, x1 = 0.00799	1004.72 ± 0.16
288.15 K, x1 = 0.00834	1004.96 ± 0.11
288.15 K, x1 = 0.01081	1006.67 ± 0.13
288.15 K, x1 = 0.01421	1009.02 ± 0.13
288.15 K, x1 = 0.01662	1010.63 ± 0.13
288.15 K, x1 = 0.019	1012.22 ± 0.13
288.15 K, x1 = 0.02321	1015 ± 0.13
288.15 K, x1 = 0.03185	1020.53 ± 0.13
288.15 K, x1 = 0.04218	1026.9 ± 0.13
288.15 K, x1 = 0.05184	1032.59 ± 0.13
288.15 K, x1 = 0.06068	1037.58 ± 0.13
288.15 K, x1 = 0.07071	1043.01 ± 0.14
298.15 K, x1 = 0.00244	998.69 ± 0.17
298.15 K, x1 = 0.00291	999 ± 0.11
298.15 K, x1 = 0.00483	1000.3 ± 0.12
298.15 K, x1 = 0.00553	1000.76 ± 0.13
298.15 K, x1 = 0.00799	1002.41 ± 0.18
298.15 K, x1 = 0.00834	1002.63 ± 0.11
298.15 K, x1 = 0.01081	1004.26 ± 0.13
298.15 K, x1 = 0.01421	1006.48 ± 0.13
298.15 K, x1 = 0.01662	1008.05 ± 0.13
298.15 K, x1 = 0.019	1009.57 ± 0.13
298.15 K, x1 = 0.02321	1012.2 ± 0.13
298.15 K, x1 = 0.03185	1017.45 ± 0.13
298.15 K, x1 = 0.04218	1023.52 ± 0.13
298.15 K, x1 = 0.05184	1028.96 ± 0.13
298.15 K, x1 = 0.06068	1033.74 ± 0.13
298.15 K, x1 = 0.07071	1038.96 ± 0.14
308.15 K, x1 = 0.00244	995.62 ± 0.18
308.15 K, x1 = 0.00291	995.92 ± 0.11
308.15 K, x1 = 0.00483	997.16 ± 0.12
308.15 K, x1 = 0.00553	997.61 ± 0.13
308.15 K, x1 = 0.00799	999.19 ± 0.2
308.15 K, x1 = 0.00834	999.41 ± 0.12
308.15 K, x1 = 0.01081	1000.97 ± 0.13
308.15 K, x1 = 0.01421	1003.1 ± 0.13
308.15 K, x1 = 0.01662	1004.61 ± 0.13
308.15 K, x1 = 0.019	1006.07 ± 0.13
308.15 K, x1 = 0.02321	1008.61 ± 0.13
308.15 K, x1 = 0.03185	1013.65 ± 0.13
308.15 K, x1 = 0.04218	1019.45 ± 0.13
308.15 K, x1 = 0.05184	1024.66 ± 0.13
308.15 K, x1 = 0.06068	1029.26 ± 0.13
308.15 K, x1 = 0.07071	1034.27 ± 0.13
323.15 K, x1 = 0.00244	989.55 ± 0.17
323.15 K, x1 = 0.00291	989.84 ± 0.11
323.15 K, x1 = 0.00483	991.02 ± 0.12
323.15 K, x1 = 0.00553	991.45 ± 0.13
323.15 K, x1 = 0.00799	992.95 ± 0.19
323.15 K, x1 = 0.00834	993.16 ± 0.12
323.15 K, x1 = 0.01081	994.63 ± 0.13
323.15 K, x1 = 0.01421	996.66 ± 0.13
323.15 K, x1 = 0.01662	998.09 ± 0.13
323.15 K, x1 = 0.019	999.47 ± 0.13
323.15 K, x1 = 0.02321	1001.87 ± 0.13
323.15 K, x1 = 0.03185	1006.67 ± 0.13
323.15 K, x1 = 0.04218	1012.19 ± 0.13
323.15 K, x1 = 0.05184	1017.13 ± 0.13
323.15 K, x1 = 0.06068	1021.48 ± 0.13
323.15 K, x1 = 0.07071	1026.24 ± 0.13
333.15 K, x1 = 0.00244	984.67 ± 0.13
333.15 K, x1 = 0.00291	984.95 ± 0.13
333.15 K, x1 = 0.00483	986.09 ± 0.13
333.15 K, x1 = 0.00553	986.51 ± 0.13
333.15 K, x1 = 0.00799	987.96 ± 0.13
333.15 K, x1 = 0.00834	988.16 ± 0.13
333.15 K, x1 = 0.01081	989.6 ± 0.13
333.15 K, x1 = 0.01421	991.56 ± 0.13
333.15 K, x1 = 0.01662	992.96 ± 0.13
333.15 K, x1 = 0.019	994.26 ± 0.13
333.15 K, x1 = 0.02321	996.6 ± 0.13
333.15 K, x1 = 0.03185	1001.3 ± 0.13
333.15 K, x1 = 0.04218	1006.7 ± 0.13
333.15 K, x1 = 0.05184	1011.49 ± 0.13
333.15 K, x1 = 0.06068	1015.72 ± 0.13
333.15 K, x1 = 0.07071	1020.32 ± 0.13
